# According to patent publication US11185517B2, “Pharmaceutical composition for treatment or remission of chronic myelogenous leukemia” (Delta-Fly Pharma, Inc., priority 2016, dated 2021):
# System: patient with chronic myelogenous leukemia
# Assay: Administration of Tasigna (nilotinib) to the patient with chronic myelogenous leukemia
# Assay type: in vivo, human
# Conditions: CML patient
# Protocol: To a patient with chronic myelogenous leukemia, Tasigna (registered trademark) (nilotinib) was administered from Jan. 9, 2014.
# The initially administered Tasigna (registered trademark) (nilotinib) had been developed as a therapeutic agent for the transitional stage of chronic myelogenous leukemia from the chronic stage to the acute stage.
smiles,measurement,setting,value
"Cc1cn(-c2cc(NC(=O)c3ccc(C)c(Nc4nccc(-c5cccnc5)n4)c3)cc(C(F)(F)F)c2)cn1 [Tasigna, nilotinib]",therapeutic effect,considered at the acute stage,no therapeutic effect
same,adverse effects,administration stopped after 5 days,strong adverse effects were observed
